# Article PMC5361079 (Scientific Reports, 2017)
# Tests used:
# [1] = system: hiPSC-CM syncytia; experiment: Spontaneous FP rate and IMP amplitude/beating rate in hiPSC-CM syncytia (RTCA CardioECR / RTCA Cardio); type: cell-based, human; conditions: prodrug co-administered with 0.3 μM amiodarone, steady state (4 h), spontaneously beating hiPSC-CM syncytia
# Protocol: hiPSC-CMs (iCells®) from Cellular Dynamics International (CDI, Madison, WI, USA) were seeded onto 48-well CardioECR or 96-well Cardio E-Plates® (ACEA Biosciences Inc., San Diego, CA, USA) coated with 10 μg/mL fibronectin (Sigma Aldrich, Catalog# F1141) at 30,000 cells/well, following manufacturer’s recommendations. Cells were maintained in culture (37 °C, 5% CO2) for a period of 14 days with iCell Maintenance® media (CDI, Madison, WI, USA) exchanged every 2–3 days. Compound addition was only performed on or after Day 14 following cell seeding.
# Compound stock solutions were prepared in 100% DMSO or H2O. On the day of compound addition, the media was exchanged with fresh iCell Maintenance® media and allowed to equilibrate for at least 3 h in the incubator. The plates were read on an xCELLigence® RTCA CardioECR or RTCA Cardio (ACEA Biosciences Inc., San Diego, CA, USA). Control pre-reads to establish a baseline were recorded for at least 45 minutes (4 reads at 15-min intervals) prior to compound addition. The compound stock solutions were diluted into iCell Maintenance® media and quickly added to the plate. The plate was continuously monitored for at least 18 h following compound addition. IMP data were sampled at 12 ms (83 Hz), while FP rate data were collected at 0.1 ms (10 KHz). Attachment, growth and viability of syncytia were monitored by means of the baseline IMP signal, as previously described. IMP and FP signals were only interpreted if the baseline IMP was maintained throughout the measurement period (usually ≤18 hrs) at ≥70% of the value before test compound application (pre-read value).
# [2] = system: hiPSC-CMs; experiment: Intracellular prodrug, cleavage intermediate metabolite and NTP metabolite concentrations in hiPSC-CMs; type: in vitro ADME, human; conditions: hiPSC-CMs; for Intracellular Concentration, Cleavage Intermediate Metabolite / Intracellular Concentration, NTP Metabolite: BLOQ = below 17 pmol/million cells
# Protocol: Approximately 18 h before dosing, iCell hiPSC-CMs were switched to iCell cardiomyocyte maintenance media free of Penicillin/Streptomycin. […] […] After the corresponding treatment, cells were washed 2x with 200 μL of ice-cold magnesium- and calcium-free PBS buffer. Cells were then lysed in 100 μL of ice-cold lysis solution (70/30 methanol/water containing 20 mM EDTA and 20 mM EGTA, pH 8) by pipetting up and down 5 times. Plates were sealed and transferred on dry ice for determination of prodrug, cleavage intermediate metabolite, and NTP metabolite concentrations. Intracellular prodrug concentrations were measured using a reversed phase HPLC- high resolution mass spectrometry method. A dimethylhexylamine based ion-pairing HPLC-MS/MS method was used to measure intracellular cleavage intermediate metabolite and NTP metabolite concentrations. Intracellular concentrations (pmol/million cells) of prodrug, cleavage intermediate metabolite, and NTP metabolite were quantitated against calibration standards of the same analytes prepared from control iCell hiPSC-CM lysates.
# For prodrug analyses, full scan high resolution mass spectrometry data was collected using an Exactive™ Orbitrap mass spectrometer with an electrospray source operated in the positive ion mode. Prodrug chromatograms were extracted from full scan high resolution mass spectrometry data for the masses indicated in Supplementary Table 5. Absence of endogenous interference(s) was verified by extracting the same ion from full scan high resolution mass spectrometry chromatograms of unspiked control cell lysates. For the cleavage intermediate metabolite and NTP metabolite an electrospray MS/MS method run on a SCIEX API 4000 mass spectrometer with turboV ionspray source was used in negative ion mode monitoring the transitions indicated in Supplementary Table 5. Absence of endogenous interference(s) was verified by monitoring of the same MRM transitions for unspiked control cell lysates. Measured intracellular prodrug, cleavage intermediate metabolite, and NTP metabolite concentrations (in pmol/million cells units) were tabulated (Table 2).
# [3] = system: conscious, male rhesus monkeys; conditions: intravenous infusion of MK-3682 after AMIO pretreatment; cited from earlier work
# [4] = 10 μM prodrug + 0.3 μM amiodarone, 4 Hours
# [5] = 10 μM prodrug + 0.3 μM amiodarone, 30 Min
smiles,measurement,setting,value
"CC(C)OC(=O)[C@@H](C)NP(=O)(OC[C@H]1O[C@@H](n2ccc(=O)[nH]c2=O)[C@](C)(Cl)[C@@H]1O)Oc1ccccc1 (stereo partly drawn) [MK-3682, isopropyl (2R)-2-[[[(2R,3R,4R,5R)-4-chloro-5-(2,4-dioxopyrimidin-1-yl)-3-hydroxy-4-methyl-tetrahydrofuran-2-yl]methoxy-phenoxy-phosphoryl]amino]propanoate]",Effect on FP rate,[1],lack of effects
same,Effect on IMP amplitude,[1],lack of effects
same,"Intracellular Concentration, Prodrug",[2]; [4],91.9 ± 12.4 pmol/million cells
same,"Intracellular Concentration, Cleavage Intermediate Metabolite",[2]; [4],BLOQ
same,"Intracellular Concentration, NTP Metabolite",[2]; [4],BLOQ
same,"Intracellular Concentration, Prodrug",[2]; [5],95.0 ± 6.7 pmol/million cells
same,"Intracellular Concentration, Cleavage Intermediate Metabolite",[2]; [5],BLOQ
same,"Intracellular Concentration, NTP Metabolite",[2]; [5],BLOQ
same,"Intracellular Concentration, Prodrug","[2]; 10 μM prodrug alone, 4 Hours",100.4 ± 13.2 pmol/million cells
same,"Intracellular Concentration, Cleavage Intermediate Metabolite","[2]; 10 μM prodrug alone, 4 Hours",BLOQ
same,"Intracellular Concentration, NTP Metabolite","[2]; 10 μM prodrug alone, 4 Hours",BLOQ
same,"Intracellular Concentration, Prodrug","[2]; 10 μM prodrug alone, 30 Min",89.8 ± 12.9 pmol/million cells
same,"Intracellular Concentration, Cleavage Intermediate Metabolite","[2]; 10 μM prodrug alone, 30 Min",BLOQ
same,"Intracellular Concentration, NTP Metabolite","[2]; 10 μM prodrug alone, 30 Min",BLOQ
same,Bradycardia and bradyarrhythmia,[3],not observed
